# Source: patent US10815224B2, “Monocyclic heteroaryl substituted compounds” (Bristol-Myers Squibb Company, priority 2016, dated 2020)
# pIC50: −log10 of the molar value.
# Molecular target: T1, protease-activated receptor type 4 (PAR4) (Homo sapiens, UniProt Q96RI0)
# T1 sequence (Q96RI0 18-385): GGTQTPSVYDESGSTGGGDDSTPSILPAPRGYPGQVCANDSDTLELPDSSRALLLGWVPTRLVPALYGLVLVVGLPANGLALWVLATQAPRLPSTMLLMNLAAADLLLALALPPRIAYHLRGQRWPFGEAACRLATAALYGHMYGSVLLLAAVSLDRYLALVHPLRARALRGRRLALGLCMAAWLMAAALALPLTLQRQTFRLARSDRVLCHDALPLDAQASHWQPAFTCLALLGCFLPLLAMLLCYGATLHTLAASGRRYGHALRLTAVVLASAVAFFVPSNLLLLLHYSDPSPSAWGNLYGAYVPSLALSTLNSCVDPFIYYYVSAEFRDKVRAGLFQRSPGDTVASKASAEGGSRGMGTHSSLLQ
# Experiment: not given
# Settings: abstract of Lee et al. 2001; cited from earlier work
row,Structure (SMILES),Inhibition of PAR4-dependent platelet activation
1,"CCOC(=O)c1ccc(-c2nn(Cc3ccccc3)c3ccccc23)cc1 [YD-3, ethyl 4-(1-benzyl-1H-indazol-3-yl)benzoate]",selective and potent inhibitor

# Test system: ACS patients
# Experiment: not given
# Settings: TRACER phase III trial; cited from earlier work
Structure (SMILES),Cardiovascular events,Risk of major bleeding
CCOC(=O)N[C@@H]1CC[C@@H]2[C@@H](C1)C[C@H]1C(=O)O[C@H](C)[C@H]1[C@H]2/C=C/c1ccc(-c2cccc(F)c2)cn1 [vorapaxar],did not significantly reduce cardiovascular events,significantly increased the risk of major bleeding

# Molecular target: T2, PAR4 (Homo sapiens, UniProt Q96RI0)
# T2 construct: expressed in transfected cells; host or cells: HEK293 PAR4 Clone 1.2A (BMS Arctic ID 383940)
# T2 sequence (Q96RI0 18-385): T1 sequence (Q96RI0 18-385)
# Experiment: PAR4 FLIPR assay: calcium mobilization in PAR4-expressing HEK293 cells
# Assay type: cell-based
# Settings: not given
# Text: The FLIPR assay is an exemplary in vitro assay for measuring the activity of the PAR4 antagonists of the present invention. In this assay, intracellular calcium mobilization is induced in PAR4 expressing cells by a PAR4 agonist and calcium mobilization is monitored.
# HEK293 cells stably expressing PAR4 were generated by a standard method of transfection of human PAR4 (F2R23) cDNA expression vector and selected based on PAR4 protein expression or mRNA expression. […] Therefore, the same cells were also used to determine selectivity against PAR1 and agonist activity for both receptors.
# FLIPR-based calcium mobilization assay in HEK293 cells was used to measure PAR4 antagonism, agonism, and selectivity against PAR1. […] Counter screens for agonist activity and PAR1 antagonist activity were also performed. […] Cells were plated overnight prior to the experiment in a black 384-well Purecoat Amine clear bottom plate (Becton Dickinson Biosciences, San Jose, Calif.) at 10,000 cells/well in 30 μL growth medium and incubated in a humidified chamber at 37° C. with 5% CO2 overnight. Prior to compound addition, the cell medium was replaced with 40 μL of 1× calcium and magnesium-containing Hank's Balanced Saline Solution (HBSS) (with 20 mM HEPES) and 1:1000 diluted fluorescent calcium indicator (Codex Biosolutions, Gaithersburg, Md.). After a 30 minute incubation period at 37° C., and a further 30 minute incubation and equilibration period at room temperature, 20 μL test compound (diluted in 1×HBSS buffer) was added at various concentrations at 0.17% dimethyl sulfoxide (DMSO) final concentration. Changes in fluorescence intensity were measured using a Functional Drug Screening System (FDSS, Hamamatsu, Japan) to determine agonist activities. The cells were then incubated for 30 minutes at room temperature followed by addition of 20 μL of agonist peptide for antagonist activity measurement. […] Compound potency was derived from 11-point concentration-response curves.
row,Structure (SMILES),pIC50
1,"Cc1cc(-c2nccs2)c2ncc(OC(F)F)nc2c1 [Example 34, 2-(2-(difluoromethoxy)-7-methylquinoxalin-5-yl)thiazole]",6.12
2,"Cc1cc(-c2nnc(-c3ccccc3)s2)c2ncc(OC(F)F)nc2c1 [Example 35, 2-(2-(difluoromethoxy)-7-methylquinoxalin-5-yl)-5-phenyl-1,3,4-thiadiazole]",7.60
3,"Cc1cc(-c2nc(C)cs2)c2ncc(OC(F)F)nc2c1 [Example 36, 2-(2-(difluoromethoxy)-7-methylquinoxalin-5-yl)-4-methylthiazole]",7.19
4,"Cc1cc(-c2ncc(-c3cccc4cc[nH]c34)s2)c2ncc(OC(F)F)nc2c1 [Example 37, 2-(2-(difluoromethoxy)-7-methylquinoxalin-5-yl)-5-(1H-indol-7-yl)thiazole]",7.22
5,"Cc1cc(-c2ncc(-c3cccc4[nH]ccc34)s2)c2ncc(OC(F)F)nc2c1 [Example 38, 2-(2-(difluoromethoxy)-7-methylquinoxalin-5-yl)-5-(l H-indol-4-yl)thiazole]",6.09
6,"Cc1cc(-c2ncc(CO)s2)c2ncc(OC(F)F)nc2c1 [Example 39, (2-(2-(difluoromethoxy)-7-methylquinoxalin-5-yl)thiazol-5-yl)methanol]",5.70
7,"Cc1cc(-c2ncc(-c3ccn[nH]3)s2)c2ncc(OC(F)F)nc2c1 [Example 40, 2-(2-(difluoromethoxy)-7-methylquinoxalin-5-yl)-5-(1H-pyrazol-5-yl)thiazole]",7.64
8,"Cc1cc(-c2ncc(-c3ccc4cc[nH]c4c3)s2)c2ncc(OC(F)F)nc2c1 [Example 42, 2-(2-(difluoromethoxy)-7-methylquinoxalin-5-yl)-5-(1H-indol-6-yl)thiazole]",7.09
9,"Cc1cc(-c2ncc(-c3ccncc3)s2)c2ncc(OC(F)F)nc2c1 [Example 43, 2-(2-(difluoromethoxy)-7-methylquinoxalin-5-yl)-5-(pyridin-4-yl)thiazole]",6.48
10,"Cc1cc(-c2ncc(-c3ccccn3)s2)c2ncc(OC(F)F)nc2c1 [Example 44, 2-(2-(difluoromethoxy)-7-methylquinoxalin-5-yl)-5-(pyridin-2-yl)thiazole]",7.10
11,"COc1cnc2c(-c3ncc(-c4ccccc4C(F)F)s3)cc(C)cc2n1 [Example 45, 5-(2-(difluoromethyl)phenyl)-2-(2-methoxy-7-methylquinoxalin-5-yl)thiazole]",7.60
12,"COc1cnc2c(-c3ncc(-c4cc(O)c(F)c(F)c4)s3)cc(C)cc2n1 [Example 46, 2,3-difluoro-5-(2-(2-methoxy-7-methylquinoxalin-5-yl)thiazol-5-yl)phenol]",7.85
13,"COc1cnc2c(-c3nc(C(F)(F)F)c(C(=O)C4CCCCC4)s3)cc(C)cc2n1 [Example 47, Cyclohexyl(2-(2-methoxy-7-methylquinoxalin-5-yl)-4-(trifluoromethyl)thiazol-5-yl) methanone]",7.28
14,"COCc1cnc2c(-c3ncc(-c4ccn[nH]4)s3)cc(C)cc2n1 [Example 48, 2-(2-(methoxymethyl)-7-methylquinoxalin-5-yl)-5-(1H-pyrazol-5-yl)thiazole]",8.51
15,"COCc1cnc2c(-c3ncc(-c4cccc(O)c4)s3)cc(C)cc2n1 [Example 49, 3-(2-(2-(methoxymethyl)-7-methylquinoxalin-5-yl)thiazol-5-yl)phenol]",7.72
16,"COCc1cnc2c(-c3ncc(-c4cc(F)ccc4O)s3)cc(C)cc2n1 [Example 50, 4-fluoro-2-(2-(2-(methoxymethyl)-7-methylquinoxalin-5-yl)thiazol-5-yl)phenol]",8.24
17,"Cc1cc(-c2ncc(-c3cccc(O)c3)s2)c2ncc(OC(F)F)nc2c1 [Example 51, 3-(2-(2-(difluoromethoxy)-7-methylquinoxalin-5-yl)thiazol-5-yl)phenol]",8.15
18,"COc1ccc(-c2cnc(-c3cc(C)cc4nc(OC)cnc34)s2)nc1 [Example 52, 2-(2-methoxy-7-methylquinoxalin-5-yl)-5-(5-methoxypyridin-2-yl)thiazole]",6.26
19,"COCc1cnc2c(-c3ncc(-c4ccc(OC)cn4)s3)cc(C)cc2n1 [Example 53, 2-(2-(methoxymethyl)-7-methylquinoxalin-5-yl)-5-(5-methoxypyridin-2-yl)thiazole]",6.54

# Same assay, conditions: HEK293 cells expressing human PAR4; calcium mobilization induced by H-Ala-Phe(4-F)-Pro-Gly-Trp-Leu-Val-Lys-Asn-Gly-NH2
row,Structure (SMILES),pIC50
1,Cc1cc(-c2nc(C(C)(C)C)cs2)c2ncc(OC(F)F)nc2c1 [Example 41],6.35
